This passage reports CC50 and EC50 results from ChEMBL document CHEMBL4339201, “A survey of core replacements in indole-based HIV-1 attachment inhibitors” (Bioorg Med Chem Lett, 2019).

Structures are written as SMILES.

What is called CC50 is the concentration giving 50% cytotoxicity. One may read the EC50 as the concentration needed to bring the measured effect to its halfway point.

Series [1] is described as follows: Cytotoxicity against human MT2 cells assessed as decrease in cell viability. In kind it is cell-based.
Series [2] relates to Human immunodeficiency virus 1. Nature of the series: Antiviral activity against ENV pseudotyped HIV1 […] infected in human HeLa67 cells expressing CD4/CCR5[…] after 72 hrs by luciferase reporter gene assay. In kind it is functional, organism-based. As to conditions: Human immunodeficiency virus 1, HeLa67, 72 h.

Consider `O=C(C(=O)N1CCN(C(=O)c2ccccc2)CC1)c1c[nH]c2ccccc12`, for which the CC50 in series [1] was determined as 339000 nM.

`COc1ccc2[nH]c(C(=O)C(=O)N3CCN(C(=O)c4ccccc4)CC3C)cc2c1` (stereo not given): in series [2], the EC50 was over 5000 nM. In series [1], the CC50 was 33000 nM. In series [2], `O=C(C(=O)N1CCN(C(=O)c2ccccc2)CC1)c1ccc2nccnc2c1` showed an EC50 of 3610 nM. Also, the CC50 in series [1] is over 300000 nM. The like results for `O=C(C(=O)N1CCN(C(=O)c2ccccc2)CC1)c1csc2ccccc12` were, in that order, 764 nM and 141000 nM. Consider `C[C@@H]1CN(C(=O)c2ccccc2)CCN1C(=O)C(=O)c1nc2ccccc2n1C`, for which the EC50 in series [2] was determined as 12 nM. The CC50 in series [1] was over 300000 nM. The like results for `C[C@@H]1CN(C(=O)c2ccccc2)CCN1C(=O)C(=O)c1ccc2ccccc2n1` were, in that order, 0.7 nM and 198000 nM. `O=C(C(=O)N1CCN(C(=O)c2ccccc2)CC1)c1cnc2ccccc2n1` had an EC50 in series [2] of 108 nM. Also, the CC50 in series [1] was over 300000 nM. Consider `C[C@@H]1CN(C(=O)c2ccccc2)CCN1C(=O)C(=O)c1cc2sccc2[nH]1`, for which the response in series [2] was half-maximal at 2320 nM (EC50). In addition, in series [1], the half-maximal cytotoxic concentration (CC50) was 106000 nM. For the compound `C[C@@H]1CN(C(=O)c2ccccc2)CCN1C(=O)C(=O)c1cc2sccc2s1`, the EC50 in series [2] was 358 nM. Besides, the CC50 in series [1] was over 300000 nM. The like results for `O=C(C(=O)N1CCN(C(=O)c2ccccc2)CC1)c1cc2ccccc2[nH]1` were, in that order, 561 nM and over 300000 nM. On to `O=C(C(=O)N1CCN(C(=O)c2ccccc2)CC1)c1cn2c(n1)sc1ccccc12`, for which the EC50 in series [2] came to 52 nM. For the same compound, in series [1], the cytotoxic concentration (CC50) was over 300000 nM. The like results for `CC1CN(C(=O)c2ccccc2)CCN1C(=O)C(=O)c1ccc2c(O)cccc2n1` (stereo not given) were, in that order, 0.4 nM and 195000 nM. The like results for `C[C@@H]1CN(C(=O)c2ccccc2)CCN1C(=O)C(=O)c1ccc2scnc2c1` were, in that order, 86 nM and over 300000 nM.

Take `O=C(C(=O)N1CCN(C(=O)c2ccccc2)CC1)c1nc2ccccc2o1`: the EC50 in series [2] is over 5000 nM. Also, the CC50 in series [1] is over 300000 nM. In series [2], `O=C(C(=O)N1CCN(C(=O)c2ccccc2)CC1)c1cnn2ccccc12` yielded an EC50 of over 5000 nM. Also, in series [1], the CC50 is over 300000 nM. Take `C[C@H]1CN(C(=O)c2ccccc2)CCN1C(=O)C(=O)c1cnc2ccccc2n1`: the EC50 in series [2] came to 26 nM. The CC50 in series [1] was determined as 114000 nM. The like results for `COc1ccc2cc(C(=O)C(=O)N3CCN(C(=O)c4ccccc4)C[C@H]3C)ccc2c1` were, in that order, 0.1 nM and 41000 nM. The like results for `O=C(C(=O)N1CCN(C(=O)c2ccccc2)CC1)c1cc2ccccc2cn1` were, in that order, 182 nM and over 300000 nM.

As for `C[C@@H]1CN(C(=O)c2ccccc2)CCN1C(=O)C(=O)c1c[nH]c2c1ccc1cccnc12`, in series [2], the midpoint of the response, the EC50, lay at 17 nM. For the same compound, the CC50 in series [1] came to 45000 nM. The like results for `C[C@@H]1CN(C(=O)c2ccccc2)CCN1C(=O)C(=O)c1ccc2cc(C(N)=O)ccc2c1` were, in that order, 11.9 nM and 189000 nM.

As for `C[C@@H]1CN(C(=O)c2ccccc2)CCN1C(=O)C(=O)c1ccc2cc(-c3nccs3)ccc2c1`, the EC50 in series [2] stood at 0.03 nM. `O=C(C(=O)N1CCN(C(=O)c2ccccc2)CC1)c1nc2ccccc2[nH]1` displayed an EC50 in series [2] of 2460 nM. The CC50 in series [1] is over 300000 nM. `CC1CN(C(=O)c2ccccc2)CCN1C(=O)C(=O)c1nsc2ccccc12` (stereo not given) had an EC50 in series [2] of 734 nM. The CC50 in series [1] turned out to be 75000 nM. `C[C@H]1CN(C(=O)c2ccccc2)CCN1C(=O)C(=O)c1ccc2ccccc2n1`: the EC50 in series [2] is 4.4 nM. Also, the CC50 in series [1] was determined as 166000 nM. The compound `C[C@@H]1CN(C(=O)c2ccccc2)CCN1C(=O)C(=O)c1ccc2cc(C(=N)NO)ccc2c1` had an EC50 in series [2] of 0.16 nM. Also, in series [1], the 50% cytotoxic concentration (CC50) was found to be 234000 nM. `O=C(C(=O)N1CCN(C(=O)c2ccccc2)CC1)c1cc2ccccc2s1`: the EC50 in series [2] came to 2840 nM. Besides, the CC50 in series [1] turned out to be 9000 nM. The like results for `O=C(C(=O)N1CCN(C(=O)c2ccccc2)CC1)c1ccc2cnccc2n1` were, in that order, 137 nM and over 300000 nM. The like results for `C[C@@H]1CN(C(=O)c2ccccc2)CCN1C(=O)C(=O)c1ccc2cc(C#N)ccc2c1` were, in that order, 30 nM and 102000 nM. As to `O=C(C(=O)N1CCN(C(=O)c2ccccc2)CC1)c1ccc2ccccc2n1`, the EC50 in series [2] worked out at 13 nM. Further, in series [1], the CC50 was over 300000 nM.

On to `C[C@@H]1CN(C(=O)c2ccccc2)CCN1C(=O)C(=O)c1cc2cccn2cn1`, for which, in series [2], the EC50 is 407 nM. The CC50 in series [1] was over 300000 nM. The like results for `C[C@@H]1CN(C(=O)c2ccccc2)CCN1C(=O)C(=O)c1ccc2cc(Br)ccc2c1` were, in that order, 1.3 nM and 301000 nM. The like results for `COc1ccc2nc(C(=O)C(=O)N3CCN(C(=O)c4ccccc4)C[C@H]3C)sc2c1` were, in that order, 2.6 nM and 151000 nM. The compound `COc1cccc2nc(C(=O)C(=O)N3CCN(C(=O)c4ccccc4)CC3C)ccc12` (stereo not given) showed an EC50 in series [2] of 2.9 nM. Moreover, the CC50 in series [1] came out at 200000 nM. The like results for `C[C@@H]1CN(C(=O)c2ccccc2)CCN1C(=O)C(=O)c1cn2c(n1)sc1ccccc12` were, in that order, 11 nM and over 300000 nM.

Regarding `O=C(C(=O)N1CCN(C(=O)c2ccccc2)CC1)c1ccc2[nH]ccc2c1`, it took 255 nM to reach a half-maximal effect in series [2] (EC50). Further, the CC50 in series [1] was over 250000 nM. In series [2], `O=C(C(=O)N1CCN(C(=O)c2ccccc2)CC1)c1ccc2ccccc2c1` had an EC50 of 135 nM. Also, the cytotoxic concentration (CC50) in series [1] is 94000 nM. The like results for `C[C@@H]1CN(C(=O)c2ccccc2)CCN1C(=O)C(=O)c1ccc2cc(C(=O)O)ccc2c1` were, in that order, 27 nM and over 300000 nM. The like results for `O=C(C(=O)N1CCN(C(=O)c2ccccc2)CC1)c1ccc2cccnc2n1` were, in that order, over 5000 nM and over 300000 nM.

In series [2], `C[C@@H]1CN(C(=O)c2ccccc2)CCN1C(=O)C(=O)c1nc2ccccc2[nH]1` came in with an EC50 of 798 nM. Moreover, the CC50 in series [1] is over 300000 nM.

As for `CC1CN(C(=O)c2ccccc2)CCN1C(=O)C(=O)c1ccc2ccccc2n1` (stereo not given), it took 1.2 nM to reach a half-maximal effect in series [2] (EC50). Moreover, the CC50 in series [1] amounted to 266000 nM.

The compound `CC1CN(C(=O)c2ccccc2)CCN1C(=O)C(=O)c1ccc2cc(Br)ccc2n1` (stereo not given) came in with an EC50 in series [2] of 1.7 nM. Further, the CC50 in series [1] is 134000 nM.

With `CC1CN(C(=O)c2ccccc2)CCN1C(=O)C(=O)c1ccc2cc(O)ccc2n1` (stereo not given), a half-maximal response in series [2] (EC50) required 0.2 nM. In series [1], the CC50 was 210000 nM. The like results for `CC1CN(C(=O)c2ccccc2)CCN1C(=O)C(=O)c1cnc2ccccn12` (stereo not given) were, in that order, over 5000 nM and over 300000 nM.

In series [2], `O=C(C(=O)N1CCN(C(=O)c2ccccc2)CC1)c1cccc2ccccc12` had an EC50 of 355 nM. Moreover, the CC50 in series [1] was over 300000 nM. Turning to `C[C@@H]1CN(C(=O)c2ccccc2)CCN1C(=O)C(=O)c1ccc2ccccc2c1`, the EC50 in series [2] is 2.4 nM. Also, in series [1], the CC50 turned out to be 171000 nM.

In series [2], `C[C@@H]1CN(C(=O)c2ccccc2)CCN1C(=O)C(=O)c1ccc2[nH]nnc2c1` had an EC50 of 3060 nM. In series [1], the CC50 is over 300000 nM.

In series [2], `CC1CN(C(=O)c2ccccc2)CCN1C(=O)C(=O)c1cnc2ncccn12` (stereo not given) yielded an EC50 of over 5000 nM. In addition, the CC50 in series [1] was over 300000 nM. The like results for `COc1cc(OC)c2cc(C(=O)C(=O)N3CCN(C(=O)c4ccccc4)CC3C)[nH]c2c1` (stereo not given) were, in that order, over 5000 nM and 68000 nM. The like results for `COc1ccc2nc(C(=O)C(=O)N3CCN(C(=O)c4ccccc4)CC3C)ccc2c1` (stereo not given) were, in that order, 0.2 nM and 184000 nM. In the case of `O=C(C(=O)N1CCN(C(=O)c2ccccc2)CC1)c1ccc2cccnc2c1`, the EC50 in series [2] stood at 2860 nM. Besides, the CC50 in series [1] is over 300000 nM. The like results for `C[C@@H]1CN(C(=O)c2ccccc2)CCN1C(=O)C(=O)c1nc2ccccc2s1` were, in that order, 34 nM and over 230000 nM.

Turning to `CC1CN(C(=O)c2ccccc2)CCN1C(=O)C(=O)c1ccc2cc(F)ccc2n1` (stereo not given), in series [2], the EC50 was 5.9 nM. Besides, in series [1], the CC50 turned out to be 258000 nM. The like results for `CC1CN(C(=O)c2ccccc2)CCN1C(=O)C(=O)c1cccc2cc[nH]c12` (stereo not given) were, in that order, 1010 nM and 212000 nM. Take `COc1cc(C(=O)C(=O)N2CCN(C(=O)c3ccccc3)C[C@H]2C)nc2ccccc12`: in series [2], the EC50 was found to be 56 nM. Moreover, the CC50 in series [1] was 96000 nM.

The compound `COc1ccc2cc(C(=O)C(=O)N3CCN(C(=O)c4ccccc4)CC3C)[nH]c2c1` (stereo not given) gave an EC50 in series [2] of 4.8 nM. In addition, in series [1], the CC50 came to 27000 nM. The like results for `C[C@@H]1CN(C(=O)c2ccccc2)CCN1C(=O)C(=O)c1n[nH]c2ccccc12` were, in that order, 655 nM and over 300000 nM. The like results for `C[C@@H]1CN(C(=O)c2ccccc2)CCN1C(=O)C(=O)c1cnc2ccccc2n1` were, in that order, 4.6 nM and over 300000 nM. The like results for `C[C@@H]1CN(C(=O)c2ccccc2)CCN1C(=O)C(=O)c1c[nH]c2ccccc12` were, in that order, 4 nM and 200000 nM.

Take `C[C@@H]1CN(C(=O)c2ccccc2)CCN1C(=O)C(=O)c1cc2ccccc2[nH]1`: in series [2], the EC50 came to 219 nM.
